Tested on: hippocampal slices from the AAV-PTPN11^D61G-infected mice
Assay: 5 TBS-induced CA1 Schaffer collateral LTP, extracellular field recordings, bath-applied SL327
Format: cell-based
Details: SL327 1 μM applied 1 hr before LTP induction and kept in bath
From the text: FIG. 3 are graphs showing that PTPN11^D61G overexpression induces learning and memory and LTP deficits that can be reversed by MEK inhibition. Panel a) AAV5-PTPN11^D61G infection results in overexpression of SHP2^D61G. […] Panel b) PTPN11^D61G overexpression increases basal Erk activity (phospho-Erk level) and prevents further Eric activation in response to TBS. Left, Representative immunoblot showing p-Erk (upper) and total Eric (lower) in PTPN11^D61G-expressing slices and GFP-expressing slices. Slices were prepared 1 hr after TBS. […] Panels c and d) MEK inhibitor SL327 (CAS 305350-87-2) reverses spatial memory deficits in PTPN11^D61G-overexpressing mice. […]
For extracellular recordings of field excitatory postsynaptic potentials (fEPSP), sagittal slices (400 μm) were prepared with a vibratome (VT1000S, Leica) in ice-cold artificial cerebrospinal fluid (ACSF). […] Recording was performed in a submerged chamber perfused with ACSF (32° C.). fEPSPs were recorded with platinum-iridium electrodes placed in the CA1 stratum radiatum. […] Baseline responses were measured with stimulation (0.017 Hz, 0.1 ms pulse duration) at an intensity (typically 20-30 μA) that evoked a response that was approximately one third of the maximum evoked response. […] Initial fEPSP slopes were measured and normalized to the average of baseline (Clampfit 10.2).

In the case of `N#C/C(=C(/N)Sc1ccc(N)cc1)c1ccccc1C(F)(F)F` [SL327], the “Average % fEPSP changes (last 10 minutes of recording), 5 TBS-induced LTP” value (GFP slices) was 146.2±4.37% and the “Average % fEPSP changes (last 10 minutes of recording), 5 TBS-induced LTP” value (PTPN11^D61G slices) was 146.1±4.36%.

Source: US10835513B2, “Methods and treatments for the learning and memory deficits associated with Noonan syndrome” (The Regents of the University of California, priority 2013, dated 2020)
